Assay results reported in PubChem BioAssay AID2060620 (Molecular Pharmacology Branch, DTP, NCI, 2025).

Test system: 328373-195-R-J1-PDC complex spheroids, viability % test/control
Assay: Anticancer human tumor 328373-195-R-J1-PDC patient-derived head and neck squamous carcinoma cell line growth inhibition [CLK]
Details: for IC50: curve of first compound; for viability, T/C: stronger effect = lower value
Summary of the method: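 Patient-derived tumor cells grown as complex spheroids with HUVEC endothelial cells and mesenchymal stem cells, treated with drug combinations. Concentrations descend in half-log steps from near clinical Cmax, or from 10 microM if Cmax unknown.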
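Note: spheroids exposed to the agents for 7 days.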

## CC1COCCN1c1cc(C2(S(C)(=N)=O)CC2)nc(-c2ccnc3[nH]ccc23)n1 (configuration not stated) + CNC(=O)c1ccc(Nc2nc(OC3CCCC3)c3c(-c4ccc5nc(C)oc5c4)c[nH]c3n2)c(OC)c1
Second compound 0.0316 µM
  IC50: 216 nM
Second compound 0.1 µM
  IC50: < 31.6 nM
Second compound 0.316 µM
  IC50: < 31.6 nM
Second compound 1 µM
  IC50: < 31.6 nM
Second compound 3.16 µM
  IC50: < 31.6 nM
Second compound 10 µM
  IC50: < 31.6 nM
Second compound 0.0316 µM, first compound 0.0316 µM
  viability, T/C: 64.5%
Second compound 0.0316 µM, first compound 0.1 µM
  viability, T/C: 54.4%
Second compound 0.0316 µM, first compound 0.316 µM
  viability, T/C: 45.9%
Second compound 0.0316 µM, first compound 1 µM
  viability, T/C: 39.2%
Second compound 0.0316 µM, first compound 3.16 µM
  viability, T/C: 18.9%
Second compound 0.0316 µM, first compound 10 µM
  viability, T/C: 5.59%
Second compound 0.1 µM, first compound 0.0316 µM
  viability, T/C: 13.4%
Second compound 0.1 µM, first compound 0.1 µM
  viability, T/C: 10.1%
Second compound 0.1 µM, first compound 0.316 µM
  viability, T/C: 8.26%
Second compound 0.1 µM, first compound 1 µM
  viability, T/C: 9.68%
Second compound 0.1 µM, first compound 3.16 µM
  viability, T/C: 5.72%
Second compound 0.1 µM, first compound 10 µM
  viability, T/C: 3.41%
Second compound 0.316 µM, first compound 0.0316 µM
  viability, T/C: 9.78%
Second compound 0.316 µM, first compound 0.1 µM
  viability, T/C: 9.55%
Second compound 0.316 µM, first compound 0.316 µM
  viability, T/C: 8.53%
Second compound 0.316 µM, first compound 1 µM
  viability, T/C: 6.94%
Second compound 0.316 µM, first compound 3.16 µM
  viability, T/C: 5.01%
Second compound 0.316 µM, first compound 10 µM
  viability, T/C: 4.53%
Second compound 1 µM, first compound 0.0316 µM
  viability, T/C: 8.51%
Second compound 1 µM, first compound 0.1 µM
  viability, T/C: 8.26%
Second compound 1 µM, first compound 0.316 µM
  viability, T/C: 8.32%
Second compound 1 µM, first compound 1 µM
  viability, T/C: 6.7%
Second compound 1 µM, first compound 3.16 µM
  viability, T/C: 5.13%
Second compound 1 µM, first compound 10 µM
  viability, T/C: 2.61%
Second compound 3.16 µM, first compound 0.0316 µM
  viability, T/C: 10.1%
Second compound 3.16 µM, first compound 0.1 µM
  viability, T/C: 10.7%
Second compound 3.16 µM, first compound 0.316 µM
  viability, T/C: 8.57%
Second compound 3.16 µM, first compound 1 µM
  viability, T/C: 7.75%
Second compound 3.16 µM, first compound 3.16 µM
  viability, T/C: 4.82%
Second compound 3.16 µM, first compound 10 µM
  viability, T/C: 2.48%
Second compound 10 µM, first compound 0.0316 µM
  viability, T/C: 12.3%
Second compound 10 µM, first compound 0.1 µM
  viability, T/C: 10.4%
Second compound 10 µM, first compound 0.316 µM
  viability, T/C: 8.76%
Second compound 10 µM, first compound 1 µM
  viability, T/C: 8.59%
Second compound 10 µM, first compound 3.16 µM
  viability, T/C: 5.88%
Second compound 10 µM, first compound 10 µM
  viability, T/C: 2.34%
